The source of these data is patent US20260167622A1, “PAN-KRAS DEGRADING AGENT, AND PREPARATION METHOD THEREFOR AND USE THEREOF” (LEADINGTAC PHARMACEUTICAL (SHAOXING) CO., LTD., priority 2022, published 2026).

Holding throughout (format): cell-based
Test [1] deals with T1, KRAS G12V protein in SW620 cells (Homo sapiens, UniProt P01116, G12V).
T1 construct: endogenous in cells; host or cells: SW620
The test is described as follows: KRAS degradation assay (Western Blot) in SW620 cells. Particulars: for DC50: 24 h; for Dmax: SW-620, 24 h. The source says:
(§1) Test Example 5: KRAS G12C, KRAS G12D, KRAS G12V, KRAS G13D, and KRAS WT (Expanded) Degradation Assays
(§2) The degradation effect of the compounds on KRAS was investigated on KRAS G12C mutant human non-small cell lung cancer cell NCI-H358, KRAS G12D mutant human metastatic pancreatic cancer cell AsPc-1, KRAS G12D mutant human lung cancer cell A427, KRAS G12V mutant human colorectal cancer cell SW620, KRAS G12V mutant human lung cancer cell SW900, KRAS G13D mutant human colorectal cancer epithelial cell DLD-1, and KRAS WT human gastric cancer cell MKN-1. The specific procedures were as follows: 0.95 mL of cells were seeded into each well of a 24-well cell culture plate to achieve a cell density of 5×10^5 cells/well; and the cell plate was incubated in an incubator at 37° C. with 5% CO2 overnight. Then 50 μL of the compound solution after dilution was added to each of the wells with the corresponding cells, so that the final concentration of the compound was in a range of 0.03-3000 nM. The final concentration of DMSO was 0.25%. After the compounds were added, the cell plate was incubated in an incubator at 37° C. with 5% CO2 for 24 h. The culture medium in the 24-well cell culture plate was then removed, and the plate was washed twice with 1×PBS (KeyGEN). 120 μL of RIPA (strong) lysis buffer (Beyotime) (supplemented with 1 mM phenylmethylsulfonyl fluoride, a protease inhibitor mixture (Beyotime), and a protease phosphatase inhibitor mixture (Beyotime)) was added to lyse adherent SW900 cells at the bottom of the cell culture plate. After the plate was left to stand on ice for 30 min, the protein lysate in each well was transferred to a 1.5 mL centrifuge tube and centrifuged at 15000 g for 20 min at 4° C. The cell lysate supernatants after centrifugation were cryopreserved in a refrigerator at −80° C. for later use.
(§3) After the samples of the cell lysate supernatants that had been prepared were thawed from the refrigerator at −80° C., the total protein concentrations of the cell lysates were determined using a BCA protein quantification kit (Tiangen). The total protein concentrations of the samples were then adjusted to 0.5 μg/μL with PBS and 5×SDS-PAGE protein loading buffer (Beyotime), and the samples were incubated in a water bath at 100° C. for 15 min. The samples were then incubated in an ice bath for 5 min and centrifuged at 14000 g for 1 min at 4° C., and the supernatants were mixed well as loading samples for the Western Blot assay. The samples were loaded into wells of a 10% precast gel (KeyGEN) with a loading volume of 10 μL (total protein: 5 μg), a sufficient Tris-MOPS-SDS running buffer (Adamas) was added, and then electrophoresis was performed at a constant voltage of 120 V for 55 min. After the electrophoresis, the proteins on the gel were transferred to PVDF membranes at a constant current of 250 mA for 55 min. After the membrane transfer, the PVDF membranes were incubated in 1× Quick Block blocking buffer (Beyotime)at room temperature for 30 min. After the blocking, the PVDF membranes were separately incubated at 4° C. overnight with the KRAS antibody (Abcam) diluted in a ratio of 1:1000 and the β-actin antibody (Abcam) diluted in a ratio of 1:2000 in 5% BSA as the diluent, and then washed with 1×TBST buffer (2.4 g of Tris, 8.8 g of NaCl, 1.5 mL of Tween 20, with pH adjusted to 7.4, with the volume brought to 1 L) 3 times for 10 min/time. The membranes were incubated with a secondary antibody (Abcam) diluted in 5% BSA at room temperature for 2 h, and then washed with 1×TBST buffer 3 times for 10 min/time. Finally, the membranes were incubated with Clarity Western ECL Substrate (BIO-RAD) for 5 min for luminescence and color development, and a ChemiScope 6200 Touch chemiluminescence imaging system (Clinx) was used for color development and protein mapping. Gray value analysis of the protein maps was performed using the chemiluminescence analysis software (Clinx). […]

For test [2], the target named is T2, KRAS WT (expanded) protein in MKN1 cells (Homo sapiens, UniProt P01116).
T2 construct: endogenous in cells; host or cells: MKN1 (MKN-1)
T2 sequence (P01116 1-188 isoform P01116-2): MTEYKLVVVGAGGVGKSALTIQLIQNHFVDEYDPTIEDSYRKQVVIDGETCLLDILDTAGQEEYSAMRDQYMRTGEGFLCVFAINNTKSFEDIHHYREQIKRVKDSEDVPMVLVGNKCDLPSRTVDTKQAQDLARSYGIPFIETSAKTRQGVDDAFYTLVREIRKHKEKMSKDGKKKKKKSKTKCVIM
Put plainly: KRAS degradation assay (Western Blot) in MKN1 cells. The settings on record: for DC50: 24 h; for Dmax: MKN-1, 24 h.
Source text: as §1, §2, §3

Test [3] deals with KRAS G12D mutant human metastatic pancreatic cancer cell AsPc-1. Put plainly: 3D cell proliferation inhibition assay, AsPc-1. The settings on record: ASPC1, 168 h, 3D culture, 7 days, CTG. The procedure, abridged: (§4)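 Seven-day 3D growth at 37 °C in low-adsorption wells, 5×10^2 cells/well except MKN1 (1×10^3), final compound range 10000–0.026 nM in 0.2% DMSO. CTG luminescence read-out; percent inhibition set against DMSO and medium-only wells, IC50 by curve fitting.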

Test [4] concerns KRAS G12C mutant human non-small cell lung cancer cell NCI-H358. Put plainly: 3D cell proliferation inhibition assay, NCI-H358. Particulars: NCI-H358, 168 h, 3D culture, 7 days, CTG. The procedure, abridged:
as §4

In test [5] the test system is KRAS G12V mutant human colorectal cancer cell SW620. Put plainly: 3D cell proliferation inhibition assay, SW620. The settings on record: SW-620, 168 h, 3D culture, 7 days, CTG. The procedure, abridged:
as §4

In test [6] the test system is KRAS G13D mutant human colorectal cancer epithelial cell DLD-1. The test is described as follows: 3D cell proliferation inhibition assay, DLD-1. Particulars: DLD-1, 168 h, 3D culture, 7 days, CTG. In outline:
as §4

For test [7], the system named is KRAS WT human gastric cancer cell MKN1. The test is described as follows: 3D cell proliferation inhibition assay, MKN1. Particulars: MKN-1, 168 h, 3D culture, 7 days, CTG. In outline: as §4
For test [8], the target named is T3, KRAS G13D protein in DLD-1 cells (Homo sapiens, UniProt P01116, G13D).
T3 construct: endogenous in cells; host or cells: DLD-1
T3 sequence (P01116 1-188 isoform P01116-2 G13D): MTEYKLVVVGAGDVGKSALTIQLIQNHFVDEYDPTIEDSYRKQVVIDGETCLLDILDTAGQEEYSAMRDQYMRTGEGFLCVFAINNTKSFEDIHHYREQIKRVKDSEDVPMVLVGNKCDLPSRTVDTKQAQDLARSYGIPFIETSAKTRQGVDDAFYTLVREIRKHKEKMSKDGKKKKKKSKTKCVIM
Put plainly: KRAS degradation assay (Western Blot) in DLD-1 cells. The settings on record: 24 h.
Source text: as §1, §2, §3

The target in test [9] is T4, KRAS G12V protein in SW900 cells (Homo sapiens, UniProt P01116, G12V).
T4 construct: endogenous in cells; host or cells: SW900
T4 sequence (P01116 1-188 isoform P01116-2 G12V): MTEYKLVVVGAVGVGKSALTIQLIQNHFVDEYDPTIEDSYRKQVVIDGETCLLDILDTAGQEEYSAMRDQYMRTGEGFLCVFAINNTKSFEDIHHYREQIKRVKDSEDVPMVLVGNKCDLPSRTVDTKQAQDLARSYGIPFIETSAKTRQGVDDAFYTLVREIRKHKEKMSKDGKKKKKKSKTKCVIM
Put plainly: KRAS degradation assay (Western Blot) in SW900 cells. Particulars: 24 h. In outline: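 After a 24 h treatment spanning 0.03–3000 nM, remaining KRAS protein is quantified by ECL immunoblot against a β-actin internal reference. Degradation is expressed relative to vehicle-treated cells and curve-fitted for DC50 and Dmax.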

For test [10], the target named is T5, KRAS G12D protein in AsPc-1 cells (Homo sapiens, UniProt P01116, G12D).
T5 construct: endogenous in cells; host or cells: AsPc-1
T5 sequence (P01116 1-188 isoform P01116-2 G12D): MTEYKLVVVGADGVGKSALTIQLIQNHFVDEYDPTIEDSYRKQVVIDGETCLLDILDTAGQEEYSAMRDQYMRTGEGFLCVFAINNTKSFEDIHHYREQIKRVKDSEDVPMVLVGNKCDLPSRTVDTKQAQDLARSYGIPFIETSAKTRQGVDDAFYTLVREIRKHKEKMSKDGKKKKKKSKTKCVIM
The test is described as follows: KRAS degradation assay (Western Blot) in AsPc-1 cells. Particulars: for DC50: 24 h; for Dmax: ASPC1, 24 h.
Source text: as §1, §2, §3

The test system of test [11] is KRAS G12D mutant human lung cancer cell A427. Put plainly: 3D cell proliferation inhibition assay, A427. Particulars: A-427, 168 h, 3D culture, 7 days, CTG. In outline:
as §4

Test [12] deals with KRAS G12D mutant human gastric cancer cell AGS. The test is described as follows: 3D cell proliferation inhibition assay, AGS. Particulars: 168 h, 3D culture, 7 days, CTG. In outline:
as §4

For test [13], the system named is KRAS G12V mutant human lung squamous carcinoma cell SW900. Put plainly: 3D cell proliferation inhibition assay, SW900. Particulars: SW900, 168 h, 3D culture, 7 days, CTG.

SMILES strings stand for the structures.

T1 sequence (P01116 1-188 isoform P01116-2 G12V): as the sequence (P01116 1-188 isoform P01116-2 G12V) above

Turning to `C#Cc1c(F)ccc2cc(O)cc(-c3ncc4c(N5CCC[C@@](C)(O)C5)nc(OCC5(CN6CCN(CC7CCC8(CC7)CCN(C(=O)c7ccc(CC)c(N9CCC(=O)NC9=O)c7)CC8)CC6)CC5)nc4c3F)c12` [Example 92, (R)-1-(2-ethyl-5-(9-((4-((1-(((7-(8-ethynyl-7-fluoro-3-hydroxynaphthalen-1-yl)-8-fluoro-4-(3-hydroxy-3-methylpiperidin-1-yl)pyrido[4,3-d]pyrimidin-2-yl)oxy)methyl)cyclopropyl)methyl)piperazin-1-yl)methyl)-3-azaspiro[5.5]undecane-3-carbonyl)phenyl)dihydropyrimidine-2,4(1H,3H)-dione], the DC50 in [1] is 1.34 nM; in [2], 0.42 nM. Further, the Dmax in [1] was determined as 100%; in test [2], 99%. The IC50 in test [3] was found to be 6.75 nM; in test [4], 19.3 nM; in test [5] it was 1.31 nM; in test [6], 2.26 nM; in test [7] it was 447 nM.
On to `[2H]C([2H])([2H])c1ccc(C(=O)N2CCC3(CCC(CN4CCN(CC5(COc6nc(N7CCC[C@@](C)(O)C7)c7cnc(-c8cc(O)cc9ccc(F)c(C#C)c89)c(F)c7n6)CC5)CC4)CC3)CC2)cc1N1CCC(=O)NC1=O` [Example 111, (R)-1-(5-(9-((4-((1-(((7-(8-ethynyl-7-fluoro-3-hydroxynaphthalen-1-yl)-8-fluoro-4-(3-hydroxy-3-methylpiperidin-1-yl)pyrido[4,3-d]pyrimidin-2-yl)oxy)methyl)cyclopropyl)methyl)piperazin-1-yl)methyl)-3-azaspiro[5.5]undecane-3-carbonyl)-2-(methyl-d3)phenyl)dihydropyrimidine-2,4(1H,3H)-dione], for which the results for the 50% degradation concentration (DC50) in [1], in [2] and in [8] were 1.65 nM, 0.69 nM and 6.78 nM, respectively. The values for the Dmax in test [1], in test [2] and in test [8] were 100%, 99.9% and 99.3%, respectively. Further, the IC50 in test [3] was determined as 4.68 nM; in test [4], 2.5 nM; in test [5], 1.12 nM; in [6], 5.88 nM; in test [7] it was 2.15 nM.
`C#Cc1c(F)ccc2cc(O)cc(-c3ncc4c(N5CCCC(C)(N)C5)nc(OCC5(CN6CCN(CC7CCC8(CC7)CCN(C(=O)c7ccc(OC)c(N9CCC(=O)NC9=O)c7)CC8)CC6)CC5)nc4c3F)c12` (stereo not drawn) [Example 163, 1-(5-(9-((4-((1-(((4-(3-amino-3-methylpiperidin-1-yl)-7-(8-ethynyl-7-fluoro-3-hydroxynaphthalen-1-yl)-8-fluoropyrido[4,3-d]pyrimidin-2-yl)oxy)methyl)cyclopropyl)methyl)piperazin-1-yl)methyl)-3-azaspiro[5.5]undecane-3-carbonyl)-2-methoxyphenyl)dihydropyrimidine-2,4(1H,3H)-dione]: the DC50 in test [9] was 251 nM; in test [10], 185 nM. Also, the results for the Dmax in test [9] and in [10] were 71% and 89%, respectively. The half-inhibitory concentration (IC50) in test [11] was 564 nM; in test [12], 588 nM; in [3] it was 368 nM; in [4] it was 420 nM; in [13], 235 nM; in [5], 285 nM. In test [7], the midpoint of inhibition, the IC50, lay at 367 nM.
In the case of `C#Cc1c(F)ccc2cc(O)cc(-c3ncc4c(N5CCOCC(C)(O)C5)nc(OCC5(CN6CCN(CC7CCC8(CC7)CCN(C(=O)c7ccc(OC)c(N9CCC(=O)NC9=O)c7)CC8)CC6)CC5)nc4c3F)c12` (stereo not drawn) [Example 165, 1-(5-(9-((4-((1-(((7-(8-ethynyl-7-fluoro-3-hydroxynaphthalen-1-yl)-8-fluoro-4-(6-hydroxy-6-methyl-1,4-oxazepan-4-yl)pyrido[4,3-d]pyrimidin-2-yl)oxy)methyl)cyclopropyl)methyl)piperazin-1-yl)methyl)-3-azaspiro[5.5]undecane-3-carbonyl)-2-methoxyphenyl)dihydropyrimidine-2,4(1H,3H)-dione], the DC50 stood at 5.9 nM in [9], 7.6 nM in [1] and 13.4 nM in test [10]. Moreover, the Dmax in test [9], in [1] and in test [10] was 100% throughout. For the same compound, the IC50 in [11] came to 108 nM; in [12] it was 27.8 nM; in [3], 18.6 nM; in [4], 7.23 nM; in test [13], 15.6 nM; in test [5], 4.58 nM. For the same compound, the IC50 in test [6] is 18.9 nM; in test [7], 52.5 nM.
